Test results: patent US9340500B2, “Aromatic heterocyclic derivative having TRPV4-inhibiting activity” (SHIONOGI & CO., LTD., priority 2011, dated 2016)

Assays:
human TRPV4 [1] = molecular target: T1, human TRPV4 (Homo sapiens (Human), UniProt Q9HBA0); assay: Test Example 3: measurement of TRPV4 inhibitory activity (Fluo-3, FDSS 3000, 4α-PDD); type: cell-based; details: hTRPV4/CHO cells, calculated from IC50 and 4α-PDD EC50
How it was run: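 Fluo-3-loaded CHO-K1 cells stably expressing TRPV4 in HEPES/probenecid Hanks buffer pH 7.4; compound added, then 4α-PDD, Ca2+ fluorescence (Ex 480/Em 540 nm) read 8 min. Max-Min normalized to 10 μM Ruthenium Red (100%) and vehicle; IC50 from 10-point 3-fold series converted to Ki using 4α-PDD EC50 and concentration.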

Solubility test = type: physicochemical; details: artificial intestinal juice (phosphate buffer) with 1% DMSO, fassgf or other biorelevant, kinetic from dmso stock, artificial intestinal juice pH 6.8, 16 hours at 25° C.
Protocol: The solubility of each compound is determined under 1% DMSO addition conditions. A 10 mmol/L solution of the compound is prepared with DMSO, and 6 μL of the compound solution is added to 594 μL of an artificial intestinal juice (water and 118 mL of 0.2 mol/L NaOH reagent are added to 250 mL of 0.2 mol/L potassium dihydrogen phosphate reagent to reach 1000 mL) with a pH of 6.8. The mixture is left standing for 16 hours at 25° C., and the mixture is vacuum-filtered. The filtrate is two-fold diluted with methanol/water=1/1, and the compound concentration in the filtrate is measured with HPLC or LC/MS/MS by the absolute calibration method.

[2] = Metabolism stability test; type: in vitro ADME; details: human liver microsomes, 30 minutes
Protocol: Using a commercially available pooled human hepatic microsomes, a test compound was reacted for a constant time, a remaining rate was calculated by comparing a reacted sample and an unreacted sample, thereby, a degree of metabolism in liver was assessed.
A reaction was performed (oxidative reaction) at 37° C. for 0 minute or 30 minutes in the presence of 1 mmol/L NADPH in 0.2 mL of a buffer (50 mmol/L Tris-HCl pH 7.4, 150 mmol/L potassium chloride, 10 mmol/L magnesium chloride) containing 0.5 mg protein/mL of human liver microsomes. After the reaction, 50 μL of the reaction mixture was added to 100 μL of a methanol/acetonitrile=1/1 (v/v), mixed and centrifuged at 3000 rpm for 15 minutes. The test compound in the supernatant was quantified by LC/MS/MS, and a remaining amount of the test compound after the reaction was calculated, letting a compound amount at 0 minute reaction time to be 100%. Hydrolysis reaction was performed in the absence of NADPH and glucuronidation reaction was in the presence of 5 mM UDP-glucuronic acid in place of NADPH, followed by similar operations.

[3] = BA test (oral absorbability); type: in vivo; details: plasma; Mouse, oral administration 1 mg/kg
Protocol: An experimental material and a method for examining oral absorbability
(1) Animals used rats or mice were used.
(2) Breeding condition: chow and sterilized tap water were allowed to be taken in freely.
(3) Setting of a dosage and grouping: a predetermined dosage was administered orally or intravenously. Groups were formed as shown below. (A dosage varied depending on each compound) Oral administration 1-30 mg/kg (n=2 to 3) Intravenous administration 0.5-10 mg/kg (n=2 to 3) (4) Preparation of administered liquid: In oral administration, a solution or suspension was administered. In intravenous administration, after solubilization, the administration was performed. (5) Method of Administration: In oral administration, compulsory administration to the stomach was conducted using an oral probe.
In intravenous administration, administration from the caudal vein was conducted using a syringe with an injection needle.
(6) Evaluation item: Blood was chronologically collected, and then the drug concentration in blood plasma was measured using a LC/MS/MS.
(7) Statistical analysis: With regard to a shift in plasma concentration, the plasma concentration-time area under the curve (AUC) was calculated using a nonlinear least-squares program WinNonlin®. Bioavailability (BA) was calculated from the AUCs of the oral administration group and the intravenous administration group, respectively. […]

human TRPV4 [4] = molecular target: T1, human TRPV4; assay: Test Example 1: measurement of TRPV4 inhibitory activity (Fluo 4-AM, FLIPR TETRA, 4α-PDD 1 μmol/L); type: cell-based; details: hTRPV4/CHO cells, 4α-PDD 1 μmol/L
How it was run: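 Calcium influx evoked by 4α-PDD (final 1 μmol/L) in hTRPV4/CHO-K1 cells loaded with Fluo-4 AM (final 3 μmol/L), pH 7.4 HEPES-Hanks with probenecid; compounds added 5 min earlier. Inhibition relative to 20 μM Ruthenium Red gave IC50 (logistic), converted to Ki via agonist EC50.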

human TRPV4 [5] = molecular target: T1, human TRPV4; assay: Test Example 2: measurement of TRPV4 inhibitory activity (Fluo 3-AM, FLIPR, 4α-PDD 600 nmol/L); type: cell-based; details: hTRPV4/CHO cells
Protocol: For each compound, TRPV4 inhibitory activity was measured using cells.
(1) The TRPV4 inhibitory activity was measured using CHO-K1 cells stably expressing human TRPV4 (hTRPV4/CHO cells).
(2) In the day before the experimental day, frozen cell were thawed and washed with the culture medium (MEM-α, 10% FBS, 4 mmol/L L-Glutamine, 50 unit Penicillin, 50 μg/mL Streptomycin). Then cells were suspended in the culture medium.
(3) The 384-well plates which hTRPV4/CHO cells were seeded at densities of 4000 cells/well in the culture medium and cultured in a CO2 incubator in the presence of 5% CO2 at 37° C. for overnight was used as assay plates. […]
(7) Diluted compound solution was dispensed to each well in the compound plate, and mixed with built-in Pipette and Mixer of the Fluorescence analysis system FLIPR 384 (Molecular devices). […]
(9) The fluorescent intensity was measured with FLIPR TETRA system for 7 min from the point of time addition the compound solution, at Ex 488 nm, Em 510-570 nm wavelength.
TRPV4 inhibitory activity (IC50 value) of a compound was evaluated according to the following procedure.
(10) In the presence of the compound, the difference between maximal and minimal of fluorescent intensity value for 3 min from just before addition of 4α-PDD solution was calculated, and it was referred as Max-Min value. […]

T1 sequence (Q9HBA0 whole entry): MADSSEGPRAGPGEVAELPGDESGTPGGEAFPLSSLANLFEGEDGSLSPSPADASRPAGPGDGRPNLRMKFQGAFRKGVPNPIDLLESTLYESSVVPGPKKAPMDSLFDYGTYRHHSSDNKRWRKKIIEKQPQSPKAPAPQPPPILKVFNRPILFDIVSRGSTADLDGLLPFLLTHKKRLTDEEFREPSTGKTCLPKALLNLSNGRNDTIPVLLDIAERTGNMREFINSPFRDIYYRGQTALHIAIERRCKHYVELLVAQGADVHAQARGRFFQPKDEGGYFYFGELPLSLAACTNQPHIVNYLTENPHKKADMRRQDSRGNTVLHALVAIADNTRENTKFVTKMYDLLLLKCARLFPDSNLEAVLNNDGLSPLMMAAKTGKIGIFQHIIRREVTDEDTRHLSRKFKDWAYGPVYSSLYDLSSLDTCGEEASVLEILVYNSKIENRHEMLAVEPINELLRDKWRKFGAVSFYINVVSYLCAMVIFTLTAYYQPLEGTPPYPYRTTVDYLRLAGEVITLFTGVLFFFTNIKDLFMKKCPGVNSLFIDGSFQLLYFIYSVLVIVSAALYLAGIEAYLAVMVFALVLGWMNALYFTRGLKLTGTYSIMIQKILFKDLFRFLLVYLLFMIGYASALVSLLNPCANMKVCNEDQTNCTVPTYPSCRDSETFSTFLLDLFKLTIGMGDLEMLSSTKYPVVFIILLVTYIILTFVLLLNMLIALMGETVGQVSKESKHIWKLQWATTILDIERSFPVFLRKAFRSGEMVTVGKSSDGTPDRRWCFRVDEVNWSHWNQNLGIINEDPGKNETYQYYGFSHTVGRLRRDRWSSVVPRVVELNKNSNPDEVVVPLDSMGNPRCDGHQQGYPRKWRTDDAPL

| Structure (SMILES) | Ki (human TRPV4 [1]) [nM] | solubility at 16 h (Solubility test) [µM] | remaining rate (metabolism stability) ([2]; compound concentration 2 μmol/L) [%] | bioavailability [3] [%] | remaining rate (metabolism stability) ([2]; compound concentration 0.5 μmol/L) [%] | IC50 (human TRPV4 [4]) [nM] | IC50 (human TRPV4 [5]) [nM] |
| --- | --- | --- | --- | --- | --- | --- | --- |
| Cc1c(C(=O)Nc2cccc(C(F)(F)F)c2)cc(-c2ccccc2)n1CCCN1CCNCC1 [Compound I-014] | 355 | > 50 | 66.3 | 15.2 | – | – | – |
| CNCCCn1c(-c2ccccc2)cc(C(=O)Nc2cccc(C(F)(F)F)c2)c1C [Compound I-031] | 160 | > 50 | – | 24.4 | 92.2 | – | – |
| Cc1c(C(=O)Nc2cccc(C(F)(F)F)c2)cc(-c2ccccc2)n1CCSCc1c(F)cccc1Cl [Compound I-084] | – | – | – | – | – | 1200 | 1600 |
